According to ChEMBL document CHEMBL1159221, “Crystal Structure of Sandaracopimaric Acid, a Lipoxygenase Inhibitor from Juniperus phoenicea” (J Nat Prod, 1995):
Activity calls are given as the source filed them. No cut-off for these calls is given here.

Columns and labels:
HGT = assay: Growth inhibition of HGT cells; assay type: functional, cell-based; details: Homo sapiens
[1] = Inhibition of soybean 15-lipoxygenase assessed as residual activity by spectrophotometry; set-up: species or system Glycine max
MCF7 = assay: Growth inhibition of human MCF7 cells; assay type: functional, cell-based

IC50 [1]: 650 µM
Structure (SMILES): C=C[C@]1(C)C=C2CC[C@@H]3[C@](C)(CCC[C@@]3(C)C(=O)O)[C@H]2CC1 [SANDARACOPIMARIC ACID]
Activity (HGT): inactive
Activity (MCF7): inactive
